From patent publication US20090054490A1, “METHODS FOR THE TREATMENT OF GERD WITH MGLUR5 ANTAGONISTS” (priority 2007, published 2009)
pKi: −log10 of the molar value.

Target: T1, human mGlu5a receptor (Homo sapiens, UniProt P41594)
T1 construct: expressed in transfected cells; host or cells: EBNA cells (transient transfection); cell membrane homogenates
Experiment: [3H]MPEP competition binding on membranes of EBNA cells transfected with human mGlu5a receptor
Conditions: [3H]MPEP 2 nM, 1 h at 4° C., read-out: Ki (mGluR5)
Protocol: For binding experiments, cDNA encoding human mGlu5a receptor was transiently transfected into EBNA cells using a procedure described by Schlaeger and Christensen [Cytotechnology 15:1-13 (1998)]. Cell membrane homogenates were stored at −80° C. until the day of assay where upon they were thawed and resuspended and polytronised in 15 mM Tris-HCl, 120 mM NaCl, 100 mM KCl, 25 mM CaCl2, 25 mM MgCl2 binding buffer at pH 7.4 to a final assay concentration of 20 […].
Saturation isotherms were determined by addition of twelve [^3H]MPEP concentrations (0.04-100 nM) to these membranes (in a total volume of 200 μl) for 1 h at 4° C. […] Incubations were performed for 1 h at 4° C.
At the end of the incubation, membranes were filtered onto unifilter (96-well white microplate with bonded GF/C filter preincubated 1 h in 0.1% PEI in wash buffer, Packard BioScience, Meriden, Conn.) with a Filtermate 96 harvester (Packard BioScience) and washed 3 times with cold 50 mM Tris-HCl, pH 7.4 buffer. Nonspecific binding was measured in the presence of […]. The radioactivity on the filter was counted (3 min) on a Packard Top-count microplate scintillation counter with quenching correction after addition of 45 μl of microscint 40 (Canberra Packard S.A., Zutrich, Switzerland) and shaking for 20 min.
The inhibition (antagonists) curves were fitted with a four parameter logistic equation giving IC50, and Hill coefficient using an iterative non linear curve fitting software (Xcel fit).
The Ki value is defined by the following formula: […]
L is the concentration of radioligand used in the binding experiment and the Kd value of the radioligand is empirically determined for each batch of membranes prepared.

T1 sequence (P41594 21-1180 isoform P41594-2 limits assumed): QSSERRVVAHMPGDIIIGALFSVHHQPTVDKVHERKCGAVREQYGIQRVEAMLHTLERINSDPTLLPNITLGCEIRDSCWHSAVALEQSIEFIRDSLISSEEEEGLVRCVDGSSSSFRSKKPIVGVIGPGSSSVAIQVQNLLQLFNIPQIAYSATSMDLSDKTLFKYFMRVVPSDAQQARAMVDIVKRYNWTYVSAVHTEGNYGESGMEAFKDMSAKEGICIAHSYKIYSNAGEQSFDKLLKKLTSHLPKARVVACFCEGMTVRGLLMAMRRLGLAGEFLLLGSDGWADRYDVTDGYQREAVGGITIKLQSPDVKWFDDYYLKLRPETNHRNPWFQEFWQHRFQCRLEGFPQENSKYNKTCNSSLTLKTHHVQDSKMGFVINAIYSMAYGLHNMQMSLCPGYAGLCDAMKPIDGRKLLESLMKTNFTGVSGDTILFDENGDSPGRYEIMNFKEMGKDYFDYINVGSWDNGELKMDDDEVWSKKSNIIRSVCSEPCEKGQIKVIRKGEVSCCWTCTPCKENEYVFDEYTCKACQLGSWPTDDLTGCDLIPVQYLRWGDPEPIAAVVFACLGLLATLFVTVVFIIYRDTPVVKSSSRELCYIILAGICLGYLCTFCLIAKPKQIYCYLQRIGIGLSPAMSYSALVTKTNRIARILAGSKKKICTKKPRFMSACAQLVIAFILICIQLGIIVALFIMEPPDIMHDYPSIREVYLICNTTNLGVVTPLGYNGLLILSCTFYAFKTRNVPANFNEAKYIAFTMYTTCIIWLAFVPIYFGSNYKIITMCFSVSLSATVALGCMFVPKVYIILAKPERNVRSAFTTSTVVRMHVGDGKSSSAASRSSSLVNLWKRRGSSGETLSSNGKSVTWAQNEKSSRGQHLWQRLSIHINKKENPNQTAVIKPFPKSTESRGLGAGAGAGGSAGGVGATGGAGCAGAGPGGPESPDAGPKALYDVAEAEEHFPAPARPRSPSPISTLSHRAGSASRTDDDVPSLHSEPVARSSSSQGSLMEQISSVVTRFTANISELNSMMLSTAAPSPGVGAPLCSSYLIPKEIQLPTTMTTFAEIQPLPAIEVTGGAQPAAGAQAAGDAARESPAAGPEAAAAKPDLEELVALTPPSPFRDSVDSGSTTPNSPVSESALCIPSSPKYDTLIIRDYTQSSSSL

Row | pKi | SMILES
1 | 7.30 | Cc1cc(F)ccc1-n1c(C)nc(C#Cc2ccnc(Cl)c2)c1C [compound 5, 2-Chloro-4-[1-(4-fluoro-2-methyl-phenyl)-2,5-dimethyl-1H-imidazol-4-ylethynyl]-pyridine]
2 | 7.46 | Cc1cc(-n2c(C)nc(C#Cc3ccnc(Cl)c3)c2C)ccc1F [compound 6, 2-Chloro-4-[1-(4-fluoro-3-methyl-phenyl)-2,5-dimethyl-1H-imidazol-4-ylethynyl]-pyridine]
3 | 7.68 | Cc1ccc(-n2c(C)nc(C#Cc3ccnc(Cl)c3)c2C)cc1 [compound 7, 2-Chloro-4-(2,5-dimethyl-1-p-tolyl-1H-imidazol-4-ylethynyl)-pyridine]
4 | 8.00 | Cc1ccc(-n2c(C)nc(C#Cc3ccnc(Cl)c3)c2C)cc1Cl [compound 8, 2-Chloro-4-[1-(3-chloro-4-methyl-phenyl)-2,5-dimethyl-1H-imidazol-4-ylethynyl]-pyridine]
5 | 7.52 | COc1ccc(-n2c(C)nc(C#Cc3ccnc(Cl)c3)c2C)cc1 [compound 10, 2-Chloro-4-[1-(4-methoxy-phenyl)-2,5-dimethyl-1H-imidazol-4-ylethynyl]-pyridine]
6 | 7.85 | Cc1nc(C#Cc2ccnc(Cl)c2)c(C)n1-c1cccc(OC(F)(F)F)c1 [compound 12, 2-Chloro-4-[2,5-dimethyl-1-(3-trifluoromethoxy-phenyl)-1H-imidazol-4-ylethynyl]-pyridine]
7 | 7.36 | Cc1nc(C#Cc2ccnc(Cl)c2)c(C)n1-c1ccc(C(F)(F)F)cc1 [compound 13, 2-Chloro-4-[2,5-dimethyl-1-(4-trifluoromethyl-phenyl)-1H-imidazol-4-ylethynyl]-pyridine]
8 | 8.30 | Cc1cc(-n2c(C)nc(C#Cc3ccnc(Cl)c3)c2C)ccc1OC(F)(F)F [compound 14, 2-Chloro-4-[2,5-dimethyl-1-(3-methyl-4-trifluoromethoxy-phenyl)-1H-imidazol-4-ylethynyl]-pyridine]
9 | 7.15 | Cc1ccc(-n2c(C)nc(C#Cc3ccnc(Cl)c3)c2C)nc1 [compound 15, 2-[4-(2-Chloro-pyridin-4-ylethynyl)-2,5-dimethyl-1H-imidazol-1-yl]-5-methyl-pyridine]
10 | 7.07 | Cc1nc(C#Cc2ccnc(Cl)c2)c(C)n1-c1ccc(Cl)nc1 [compound 16, 2-Chloro-5-[4-(2-Chloro-pyridin-4-ylethynyl)-2,5-dimethyl-1H-imidazol-1-yl]-pyridine]
11 | 7.10 | Cc1cc(C(F)(F)F)cc(-n2c(C)nc(C#Cc3ccnc(Cl)c3)c2C)n1 [compound 17, 2-[4-(2-Chloro-pyridin-4-ylethynyl)-2,5-dimethyl-imidazol-1-yl]-6-methyl-4-trifluoromethyl-pyridine]
12 | 6.97 | Cc1nc(C#Cc2ccnc(Cl)c2)c(C)n1-c1cnccn1 [compound 18, 2-[4-(2-Chloro-pyridin-4-ylethynyl)-2,5-dimethyl-imidazol-1-yl]-pyrazine]
13 | 7.70 | Cc1nc(C#Cc2ccnc(Cl)c2)c(C)n1-c1ccc(Cl)cc1 [compound 19, 2-Chloro-4-[1-(4-chloro-phenyl)-2,5-dimethyl-1H-imidazol-4-ylethynyl]-pyridine]
14 | 7.55 | Cc1nc(C#Cc2ccnc(Cl)c2)c(C)n1-c1cccc(Cl)c1F [compound 20, 2-Chloro-4-[1-(3-chloro-2-fluoro-phenyl)-2,5-dimethyl-1H-imidazol-4-ylethynyl]-pyridine]
15 | 7.26 | Cc1nc(C#Cc2ccnc(Cl)c2)c(C)n1-c1cccc(C(F)(F)F)c1 [compound 21, 2-Chloro-4-[2,5-dimethyl-1-(3-trifluoromethyl-phenyl)-1H-imidazol-4-ylethynyl]-pyridine]
16 | 7.51 | Cc1nc(C#Cc2ccnc(Cl)c2)c(C)n1-c1ccc(F)c(Cl)c1 [compound 22, 2-Chloro-4-[1-(3-chloro-4-fluoro-phenyl)-2,5-dimethyl-1H-imidazol-4-ylethynyl]-pyridine]
17 | 7.03 | Cc1cccc(-n2c(C)nc(C#Cc3ccnc(Cl)c3)c2C)n1 [compound 23, 2-[4-(2-Chloro-pyridin-4-ylethynyl)-2,5-dimethyl-1H-imidazol-1-yl]-6-methyl-pyridine]
18 | 7.59 | Cc1nc(C#Cc2ccnc(Cl)c2)c(C)n1-c1cccc(C(F)(F)F)n1 [compound 24, 2-[4-(2-Chloro-pyridin-4-ylethynyl)-2,5-dimethyl-1H-imidazol-1-yl]-6-(trifluoromethyl)-pyridine]
19 | 8.23 | Cc1c(C#Cc2ccnc(Cl)c2)nn(C)c1-c1ccc(F)cc1 [compound 26, 2-Chloro-4-[5-(4-fluoro-phenyl)-1,4-dimethyl-1H-pyrazol-3-ylethynyl]-pyridine]
20 | 7.37 | Cc1nc(C#Cc2ccnc(Cl)c2)c(C(F)F)n1-c1ccc(F)cc1 [compound 27, 2-Chloro-4-[5-difluoromethyl-1-(4-fluoro-phenyl)-2-methyl-1H-imidazol-4-ylethynyl]-pyridine]
21 | 6.68 | Cc1nc(C#Cc2ccnc(Cl)c2)c(CO)n1-c1ccc(F)cc1 [compound 28, [5-(2-Chloro-pyridin-4-ylethynyl)-3-(4-fluoro-phenyl)-2-methyl-3H-imidazol-4-yl]-methanol]
